Assay results published in ChEMBL document CHEMBL5055650, “4-Acyl Pyrrole Capped HDAC Inhibitors: A New Scaffold for Hybrid Inhibitors of BET Proteins and Histone Deacetylases as Antileukemia Drug Leads” (J Med Chem, 2021).
Active and inactive are the calls of the source. No cut-off for these calls is given here.

Assays:
HPBALL [1] = experiment: Anticancer activity against human HPBALL cells assessed as cell growth inhibition by CellTiter-Glo luminescent assay; format: functional, cell-based
TALL-1 [2] = experiment: Anticancer activity against human TALL-1 cells assessed as cell growth inhibition by CellTiter-Glo luminescent assay; format: functional, cell-based
HL-60 [3] = experiment: Anticancer activity against human HL-60 cells assessed as cell growth inhibition by CellTiter-Glo luminescent assay; format: functional, cell-based
K562 [4] = experiment: Anticancer activity against human K562 cells assessed as cell growth inhibition by CellTiter-Glo luminescent assay; format: functional, cell-based
HAL-01 = experiment: Anticancer activity against human HAL-01 cells assessed as cell growth inhibition by CellTiter-Glo luminescent assay; format: functional, cell-based
REH = experiment: Anticancer activity against human REH cells assessed as cell growth inhibition by CellTiter-Glo luminescent assay; format: functional, cell-based
[5] = molecular target: Bromodomain-containing protein 4 (Homo sapiens, UniProt O60885); experiment: Binding affinity to human BRD4 domain 1 (unknown origin) assessed as dissociation constant by isothermal titration calorimetry assay
[6] = molecular target: T1, Protein deacetylase HDAC6 (Homo sapiens, UniProt Q9UBN7); experiment: Inhibition of human recombinant HDAC6 assessed as fluorescence using fluorogenic substrate ZMAL incubated for 90 min by microplate reader
T1 sequence (Q9UBN7 whole entry): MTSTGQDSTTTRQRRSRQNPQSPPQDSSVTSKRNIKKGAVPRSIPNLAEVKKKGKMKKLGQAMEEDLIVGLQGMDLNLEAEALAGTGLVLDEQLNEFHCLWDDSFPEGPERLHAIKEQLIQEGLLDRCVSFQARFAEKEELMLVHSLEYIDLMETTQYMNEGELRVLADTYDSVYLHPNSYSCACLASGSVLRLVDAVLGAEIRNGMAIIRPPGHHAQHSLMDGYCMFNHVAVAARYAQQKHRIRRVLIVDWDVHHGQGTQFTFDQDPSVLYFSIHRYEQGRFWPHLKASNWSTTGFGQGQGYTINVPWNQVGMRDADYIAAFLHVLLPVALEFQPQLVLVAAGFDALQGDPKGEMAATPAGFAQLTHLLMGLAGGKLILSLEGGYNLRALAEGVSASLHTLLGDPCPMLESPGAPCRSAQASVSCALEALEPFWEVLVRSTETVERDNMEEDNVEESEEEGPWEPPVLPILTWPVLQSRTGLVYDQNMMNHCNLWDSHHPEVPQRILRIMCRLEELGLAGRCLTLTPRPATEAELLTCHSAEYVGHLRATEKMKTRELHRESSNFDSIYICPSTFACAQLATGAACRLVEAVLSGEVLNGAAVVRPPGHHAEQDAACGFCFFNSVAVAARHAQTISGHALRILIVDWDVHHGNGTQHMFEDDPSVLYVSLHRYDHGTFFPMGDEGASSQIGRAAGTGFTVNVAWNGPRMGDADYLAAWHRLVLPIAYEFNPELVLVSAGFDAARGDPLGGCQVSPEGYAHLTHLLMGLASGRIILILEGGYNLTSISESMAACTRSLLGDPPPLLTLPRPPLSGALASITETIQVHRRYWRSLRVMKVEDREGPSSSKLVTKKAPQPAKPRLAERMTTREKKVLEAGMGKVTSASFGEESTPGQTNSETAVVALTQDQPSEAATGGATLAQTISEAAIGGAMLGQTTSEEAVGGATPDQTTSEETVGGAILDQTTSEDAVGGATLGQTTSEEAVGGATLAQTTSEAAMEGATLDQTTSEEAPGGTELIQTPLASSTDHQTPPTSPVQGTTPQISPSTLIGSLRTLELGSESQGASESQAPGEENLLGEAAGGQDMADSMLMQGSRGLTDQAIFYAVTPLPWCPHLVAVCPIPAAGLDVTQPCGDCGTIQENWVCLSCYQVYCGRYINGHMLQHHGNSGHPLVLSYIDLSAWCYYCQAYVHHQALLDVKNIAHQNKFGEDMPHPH

Histone deacetylase 1 = Histone deacetylase 1 (Homo sapiens, UniProt Q13547); experiment: Inhibition of human recombinant HDAC1 assessed as fluorescence using fluorogenic substrate ZMAL incubated for 90 min by microplate reader
Chain of Histone deacetylase 1 (Q13547 whole entry): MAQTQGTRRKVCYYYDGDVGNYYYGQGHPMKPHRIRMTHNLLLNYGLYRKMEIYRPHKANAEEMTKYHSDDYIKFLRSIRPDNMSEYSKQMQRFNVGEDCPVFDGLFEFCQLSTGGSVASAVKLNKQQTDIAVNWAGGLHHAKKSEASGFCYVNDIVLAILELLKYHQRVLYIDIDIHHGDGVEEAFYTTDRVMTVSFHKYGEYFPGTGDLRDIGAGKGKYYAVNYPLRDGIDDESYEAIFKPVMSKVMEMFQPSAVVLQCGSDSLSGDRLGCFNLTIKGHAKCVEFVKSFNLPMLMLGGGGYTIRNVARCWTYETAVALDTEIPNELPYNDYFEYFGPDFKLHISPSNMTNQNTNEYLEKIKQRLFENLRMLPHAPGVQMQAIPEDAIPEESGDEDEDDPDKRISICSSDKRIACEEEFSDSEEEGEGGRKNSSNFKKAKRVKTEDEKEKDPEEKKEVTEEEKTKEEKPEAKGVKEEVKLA

K562 [7] = experiment: Induction of apoptosis in human K562 cells assessed as apoptosis at 6 uM after 24 to 72 hrs using annexin V/PI followed by flow cytometry; format: functional, cell-based; conditions: time 24-72 hrs
K562 [8] = experiment: Induction of apoptosis in human K562 cells assessed as increase cleaved PARP expression measured after 24 to 72 hrs by Western blot analysis; format: functional, cell-based; conditions: time 24-72 hrs
HL-60 [9] = experiment: Cytotoxicity against human HL-60 cells assessed as cell viability at 5 uM by CellTiter-Glo luminescent assay; format: functional; conditions: read-out: Activity
TALL-1 [10] = experiment: Cytotoxicity against human TALL-1 cells assessed as cell viability at 5 uM by CellTiter-Glo luminescent assay; format: functional; conditions: read-out: Activity
MOLT-4 = experiment: Cytotoxicity against human MOLT-4 cells assessed as cell viability at 5 uM by CellTiter-Glo luminescent assay; format: functional; conditions: read-out: Activity
[11] = molecular target: T2, Bromodomain-containing protein 3 (Homo sapiens, UniProt Q15059); experiment: Binding affinity to human BRD3 domain 1 assessed as dissociation constant by isothermal titration calorimetry assay
T2 sequence (Q15059 whole entry, the tested form may be a part): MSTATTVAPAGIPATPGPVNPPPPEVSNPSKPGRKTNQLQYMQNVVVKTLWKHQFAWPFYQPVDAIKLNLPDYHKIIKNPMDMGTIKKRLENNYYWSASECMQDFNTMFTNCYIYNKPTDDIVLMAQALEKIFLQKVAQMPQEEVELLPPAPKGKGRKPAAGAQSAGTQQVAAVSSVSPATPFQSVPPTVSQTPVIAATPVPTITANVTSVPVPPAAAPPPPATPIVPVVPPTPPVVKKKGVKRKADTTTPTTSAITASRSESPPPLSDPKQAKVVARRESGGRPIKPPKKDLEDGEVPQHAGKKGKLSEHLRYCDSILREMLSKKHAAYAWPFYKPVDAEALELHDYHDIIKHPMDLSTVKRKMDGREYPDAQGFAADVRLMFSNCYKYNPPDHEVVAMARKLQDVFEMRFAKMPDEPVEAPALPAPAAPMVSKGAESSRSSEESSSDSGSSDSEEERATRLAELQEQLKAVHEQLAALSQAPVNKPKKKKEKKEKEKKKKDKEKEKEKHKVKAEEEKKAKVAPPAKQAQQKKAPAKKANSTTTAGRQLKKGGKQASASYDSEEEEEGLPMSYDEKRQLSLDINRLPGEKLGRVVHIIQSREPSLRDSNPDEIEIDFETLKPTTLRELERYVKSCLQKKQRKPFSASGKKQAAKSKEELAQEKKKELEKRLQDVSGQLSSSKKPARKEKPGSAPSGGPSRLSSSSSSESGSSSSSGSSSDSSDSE

[12] = molecular target: T3, Bromodomain-containing protein 2 (Homo sapiens, UniProt P25440); experiment: Binding affinity to human BRD2 domain 2 assessed as dissociation constant by isothermal titration calorimetry assay
T3 sequence (P25440 whole entry, the tested form may be a part): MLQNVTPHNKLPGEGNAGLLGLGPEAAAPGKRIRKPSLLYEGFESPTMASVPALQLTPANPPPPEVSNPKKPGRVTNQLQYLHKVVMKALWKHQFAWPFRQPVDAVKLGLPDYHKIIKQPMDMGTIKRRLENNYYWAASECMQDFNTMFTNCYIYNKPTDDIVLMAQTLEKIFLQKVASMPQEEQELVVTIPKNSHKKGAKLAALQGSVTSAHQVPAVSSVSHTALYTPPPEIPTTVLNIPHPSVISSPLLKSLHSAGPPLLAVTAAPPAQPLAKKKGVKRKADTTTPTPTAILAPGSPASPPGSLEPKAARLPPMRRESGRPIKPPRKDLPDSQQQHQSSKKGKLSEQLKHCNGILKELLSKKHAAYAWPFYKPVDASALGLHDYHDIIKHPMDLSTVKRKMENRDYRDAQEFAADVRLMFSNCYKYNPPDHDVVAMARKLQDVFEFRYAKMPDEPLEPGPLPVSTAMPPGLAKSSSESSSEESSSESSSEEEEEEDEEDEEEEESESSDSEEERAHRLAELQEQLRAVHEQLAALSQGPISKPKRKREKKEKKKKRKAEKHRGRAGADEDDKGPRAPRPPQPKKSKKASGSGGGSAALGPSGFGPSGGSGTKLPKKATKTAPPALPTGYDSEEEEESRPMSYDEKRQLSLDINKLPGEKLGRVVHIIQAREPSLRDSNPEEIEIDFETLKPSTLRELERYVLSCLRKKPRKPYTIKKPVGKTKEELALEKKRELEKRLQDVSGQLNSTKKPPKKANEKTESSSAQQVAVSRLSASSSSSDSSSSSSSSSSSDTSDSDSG

[13] = molecular target: T3, Bromodomain-containing protein 2; experiment: Binding affinity to human BRD2 domain 1 assessed as dissociation constant by isothermal titration calorimetry assay
[14] = molecular target: T2, Bromodomain-containing protein 3; experiment: Binding affinity to human BRD3 domain 2 assessed as dissociation constant by isothermal titration calorimetry assay
[15] = molecular target: T4, Bromodomain-containing protein 7 (Homo sapiens, UniProt Q9NPI1); experiment: Binding affinity to human BRD7 assessed as dissociation constant by isothermal titration calorimetry assay
T4 sequence (Q9NPI1 whole entry): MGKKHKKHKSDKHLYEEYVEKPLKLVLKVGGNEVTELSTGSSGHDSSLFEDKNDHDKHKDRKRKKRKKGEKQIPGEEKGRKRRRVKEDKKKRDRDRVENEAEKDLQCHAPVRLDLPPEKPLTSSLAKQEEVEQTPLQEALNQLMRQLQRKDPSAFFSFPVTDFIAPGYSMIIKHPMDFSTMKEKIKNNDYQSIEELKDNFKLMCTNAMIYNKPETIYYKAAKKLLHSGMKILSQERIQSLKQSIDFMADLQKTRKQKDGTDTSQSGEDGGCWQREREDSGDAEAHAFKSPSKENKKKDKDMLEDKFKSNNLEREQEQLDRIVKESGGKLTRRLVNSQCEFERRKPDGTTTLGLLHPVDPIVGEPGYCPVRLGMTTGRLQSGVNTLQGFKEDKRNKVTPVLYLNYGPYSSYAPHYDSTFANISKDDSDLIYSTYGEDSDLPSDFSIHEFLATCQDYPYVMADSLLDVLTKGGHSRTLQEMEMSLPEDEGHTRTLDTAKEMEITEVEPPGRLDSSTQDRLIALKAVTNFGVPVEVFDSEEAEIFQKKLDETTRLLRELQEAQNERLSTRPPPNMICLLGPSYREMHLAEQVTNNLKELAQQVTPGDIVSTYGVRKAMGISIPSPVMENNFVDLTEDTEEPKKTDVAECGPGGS

Histone deacetylase 2 = Histone deacetylase 2 (Homo sapiens, UniProt Q92769); experiment: Inhibition of human HDAC2 assessed as target activity using fluorogenic substrate ZMAL for 90 min by microplate reader at 355nm
Chain of Histone deacetylase 2 (Q92769 whole entry): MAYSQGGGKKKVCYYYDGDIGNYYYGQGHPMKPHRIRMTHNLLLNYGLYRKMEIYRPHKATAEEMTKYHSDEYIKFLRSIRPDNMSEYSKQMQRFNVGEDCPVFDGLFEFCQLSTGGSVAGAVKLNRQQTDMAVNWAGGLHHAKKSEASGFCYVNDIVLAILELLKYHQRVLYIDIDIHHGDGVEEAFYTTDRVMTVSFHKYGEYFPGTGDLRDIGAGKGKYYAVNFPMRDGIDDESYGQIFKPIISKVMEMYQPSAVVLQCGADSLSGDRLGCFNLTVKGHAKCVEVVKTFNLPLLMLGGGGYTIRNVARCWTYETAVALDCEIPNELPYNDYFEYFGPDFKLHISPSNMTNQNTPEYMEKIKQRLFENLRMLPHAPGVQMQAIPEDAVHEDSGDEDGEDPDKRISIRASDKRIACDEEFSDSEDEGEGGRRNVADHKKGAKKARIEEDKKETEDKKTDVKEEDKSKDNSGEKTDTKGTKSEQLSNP

Histone deacetylase 3 = Histone deacetylase 3 (Homo sapiens, UniProt O15379); experiment: Inhibition of human HDAC3 assessed as target activity using fluorogenic substrate ZMAL for 90 min by microplate reader at 355nm
Chain of Histone deacetylase 3 (O15379 whole entry): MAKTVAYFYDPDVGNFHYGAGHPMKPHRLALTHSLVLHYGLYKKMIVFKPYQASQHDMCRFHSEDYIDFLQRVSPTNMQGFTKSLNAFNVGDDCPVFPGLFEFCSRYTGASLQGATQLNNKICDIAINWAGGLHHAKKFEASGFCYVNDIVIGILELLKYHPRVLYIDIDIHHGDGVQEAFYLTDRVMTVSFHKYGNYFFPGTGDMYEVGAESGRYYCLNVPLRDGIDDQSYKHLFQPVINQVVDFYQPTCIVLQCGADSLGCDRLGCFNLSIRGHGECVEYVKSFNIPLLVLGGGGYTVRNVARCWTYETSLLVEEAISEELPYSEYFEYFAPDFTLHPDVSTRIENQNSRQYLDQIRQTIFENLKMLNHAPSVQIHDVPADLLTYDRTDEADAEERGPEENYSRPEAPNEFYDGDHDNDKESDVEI

[16] = molecular target: T5, Histone deacetylase (Homo sapiens) (UniProt Q13547+O15379+Q9UBN7+Q92769+Q9UQL6+Q8WUI4+Q9BY41+Q96DB2+P56524+Q9UKV0+Q969S8); experiment: Inhibition of HDAC in human K562 cells assessed as decrease in MYC expression measured after 24 to 72 hrs by Western blot analysis; format: cell-based; conditions: time 24-72 hrs
[17] = molecular target: T5, Histone deacetylase (Homo sapiens); experiment: Inhibition of HDAC in human K562 cells assessed as increase in acetylated alpha-tubulin measured after 48 hrs by Western blot analysis; format: cell-based
[18] = molecular target: T5, Histone deacetylase (Homo sapiens); experiment: Inhibition of HDAC in human K562 cells assessed as increase in acetylated histone H3 measured after 48 hrs by Western blot analysis; format: cell-based
HPBALL [19] = experiment: Anticancer activity against human HPBALL cells assessed as reduction in size of colony at 5 uM measured after 24 hrs by colony formation assay; format: functional, cell-based
HPBALL [20] = experiment: Anticancer activity against human HPBALL cells assessed as reduction in total number of colony forming units at 5 uM measured after 24 hrs by colony formation assay; format: functional, cell-based

Row | Structure (SMILES) | Kd ([5]; read-out: Kd) | IC50 [6] | IC50 (Histone deacetylase 1) | viability at 5 µM (HL-60 [9]) | viability at 5 µM (TALL-1 [10]) | viability at 5 µM (MOLT-4) | also measured
1 | Cc1sc2c(c1C)C(c1ccc(Cl)cc1)=N[C@@H](CC(=O)Nc1ccc(O)cc1)c1nnc(C)n1-2 [BIRABRESIB] |  |  |  |  |  |  | IC50 (HPBALL [1]): 7.01 µM; IC50 (TALL-1 [2]): 1.35 µM; IC50 (HL-60 [3]): 0.82 µM; IC50 (K562 [4]): 2.84 µM; IC50 (HAL-01): 2.53 µM; IC50 (REH): 15.3 µM
2 | CCc1c(C(=O)Nc2cccc(CCC(=O)NO)c2)[nH]c(C)c1C(C)=O | 11.5 µM | 0.658 µM | 0.9 µM |  |  |  | 
3 | O=C(CCCCCCNC(=O)c1cnc(N(c2ccccc2)c2ccccc2)nc1)NO [RICOLINOSTAT] |  |  |  |  |  |  | IC50 (HPBALL [1]): 6.7 µM; IC50 (TALL-1 [2]): 3.88 µM; IC50 (HL-60 [3]): 10.4 µM; IC50 (K562 [4]): 6.02 µM; IC50 (HAL-01): > 25 µM; IC50 (REH): > 25 µM; Activity (K562 [7]): Active; Activity (K562 [8]): Active
4 | Cn1cccc1C(=O)Nc1cccc(CCC(=O)NO)c1 |  | 0.62 µM | 1.28 µM |  |  |  | Kd [5]: Not Active
5 | CCc1c(C(=O)Nc2cc(/C=C/C(=O)NO)ccc2O)[nH]c(C)c1C(C)=O | 2.66 µM | 0.08 µM | 0.142 µM | 88.2% | 87.6% | 105% | 
6 | CCc1c(C(=O)Nc2cccc(CCC(=O)Nc3ccccc3N)c2)[nH]c(C)c1C(C)=O | 6.92 µM | > 100 µM | 28.2 µM |  |  |  | 
7 | CCc1c(C(=O)Nc2cccc(CCC(=O)OC)c2)[nH]c(C)c1C(C)=O | 8.26 µM | > 33.3 µM | > 33.3 µM |  |  |  | 
8 | COC(=O)CCCCCCCOc1ccc(S(=O)(=O)N2CCOCC2)cc1NC(=O)c1c2c(c(C)n1C)C(=O)CCCC2 | 0.034 µM | > 10 µM | > 10 µM | 104% | 70.3% | 68.6% | 
9 | CCc1c(C(=O)Nc2cccc(/C=C/C(=O)NO)c2)[nH]c(C)c1C(C)=O | 4.5 µM | 0.045 µM | 0.125 µM |  |  |  | Kd [11]: > 10 µM; Kd [12]: > 10 µM; Kd [13]: 7.7 µM; Kd [14]: > 10 µM; Kd [15]: > 10 µM; IC50 (Histone deacetylase 2): 0.168 µM; IC50 (Histone deacetylase 3): 0.149 µM; IC50 (HPBALL [1]): > 25 µM; IC50 (TALL-1 [2]): 5.16 µM; IC50 (HL-60 [3]): > 25 µM; IC50 (K562 [4]): 7.38 µM; IC50 (HAL-01): > 25 µM; IC50 (REH): > 25 µM; Activity [16]: Active; inhibition [17]: Active; Activity [18]: Active
10 | CCc1c(C(=O)Nc2cc(S(=O)(=O)Nc3cccc(/C=C/C(=O)NO)c3)ccc2OC)[nH]c(C)c1C(C)=O | 3.67 µM | 0.073 µM | 0.097 µM | 98.7% | 85.6% | 106% | 
11 | Cc1c2c(c(C(=O)Nc3cc(S(=O)(=O)N4CCOCC4)ccc3OCCCCCCCC(=O)NO)n1C)CCCCC2=O |  | 0.32 µM | 0.33 µM | 80.8% | 82.3% | 115% | Activity (HPBALL [19]): Active; Activity (HPBALL [20]): Active
12 | CCc1c(C(=O)Nc2cc(S(=O)(=O)N(CC)CC)ccc2O)[nH]c(C)c1C(C)=O |  |  |  |  |  |  | Kd [11]: 0.38 µM; Kd [12]: 0.83 µM; Kd [13]: 0.17 µM; Kd [14]: 0.49 µM
